Publication PMC10885153, “Membrane Permeability in a Large Macrocyclic Peptide Driven by a Saddle-Shaped Conformation” (Journal of the American Chemical Society, 2024)
Positions of bridges follow the written chain, without caps; N, C: chain ends. Non-standard residues stand in square brackets, D forms with d. Residues, ends and D or L forms follow the SMILES beside them. Cha = N[C@@H](CC1CCCCC1)C(=O)O; NMeNva = CCC[C@H](NC)C(=O)O; NMeAbu = CC[C@H](NC)C(=O)O; NMeC = CN[C@@H](CS)C(=O)O; NMeA = CN[C@@H](C)C(=O)O; dAbu = CC[C@@H](N)C(=O)O; dNMeA = CN[C@H](C)C(=O)O; Nva = CCC[C@H](N)C(=O)O; Abu = CC[C@H](N)C(=O)O; NPrGly = CCCNCC(=O)O; NEtG = CCNCC(=O)O

Settings: not given

With CCOC(=O)[C@@H]1CSCC(=O)N[C@H](CC)C(=O)N(C)[C@@H](C)C(=O)N[C@@H](CC(C)C)C(=O)N2CCC[C@@H]2C(=O)N(CC)CC(=O)N[C@H](CC(C)C)C(=O)N(C)[C@H](C)C(=O)N[C@@H](CC(C)C)C(=O)N1C [JF206_ADD_DLDD_Ethyl] ({CH2CO}-[dAbu][NMeA]L[dP][NEtG][dL][dNMeA]L[NMeC]-OEt; thioether N-9) as the compound, how does the “PAMPA Pe_avg” value read?
The value was 0 ×10⁻⁶ cm/s.

For CCOC(=O)[C@@H]1CSCC(=O)N[C@H](CC)C(=O)N(C)[C@@H](C)C(=O)N[C@@H](CC(C)C)C(=O)N2CCC[C@H]2C(=O)N(CC)CC(=O)N[C@H](CC(C)C)C(=O)N(C)[C@H](C)C(=O)N[C@@H](CC(C)C)C(=O)N1C [JF206_ALD_DLDD_Ethyl] ({CH2CO}-[dAbu][NMeA]LP[NEtG][dL][dNMeA]L[NMeC]-OEt; thioether N-9), which “PAMPA Pe_avg” value is on record?
Its value is 0 ×10⁻⁶ cm/s.

Same assay, conditions: PAMPA, 10 µM, pH 7.4

Which “%R_avg” value does the source give for CCC[C@@H]1NC(=O)[C@H](C)N(C)C(=O)[C@H](CC(C)C)NC(=O)CSC[C@@H](C(=O)OCC)N(C)C(=O)[C@H](CC(C)C)NC(=O)[C@H](C)N(C)C(=O)[C@H](CC(C)C)NC(=O)[C@H](CC)N(C)C(=O)[C@H]2CCCN2C1=O [LC05, O=C(N(C)[C@H](C(OCC)=O)CSCC(N[C@H](C(N(C)[C@@H](C)C(N[C@@H](CCC)C(N1[C@H](CCC1)C(N(C)[C@@H](CC)C(N[C@H]2CC(C)C)=O)=O)=O)=O)=O)CC(C)C)=O)[C@H](CC(C)C)NC([C@H](C)N(C)C2=O)=O] ({CH2CO}-L[NMeA][Nva][dP][NMeAbu]L[NMeA]L[NMeC]-OEt; thioether N-9) here?
Its value is 7.6%.

Which “%R_avg” value does the source give for CCOC(=O)[C@@H]1CSCC(=O)N[C@@H](CC(C)C)C(=O)N(C)[C@@H](C)C(=O)N[C@@H](CC(C)C)C(=O)N2CCC[C@@H]2C(=O)N(CC)CC(=O)N[C@@H](CC(C)C)C(=O)N(C)[C@@H](C)C(=O)N[C@@H](CC(C)C)C(=O)N1C [LA06, O=C(N(C)[C@H](C(OCC)=O)CSCC(N[C@H](C(N(C)[C@@H](C)C(N[C@@H](CC(C)C)C(N1[C@H](CCC1)C(N(CC)CC(N[C@H]2CC(C)C)=O)=O)=O)=O)=O)CC(C)C)=O)[C@H](CC(C)C)NC([C@H](C)N(C)C2=O)=O] ({CH2CO}-L[NMeA]L[dP][NEtG]L[NMeA]L[NMeC]-OEt; thioether N-9) here?
The value was 5.1%.

With CCOC(=O)[C@@H]1CSCC(=O)N[C@@H](CC(C)C)C(=O)N(C)[C@@H](C)C(=O)N[C@@H](CC(C)C)C(=O)N2CCC[C@@H]2C(=O)N(CC)CC(=O)N[C@@H](CC2CCCCC2)C(=O)N(C)[C@@H](C)C(=O)N[C@@H](CC(C)C)C(=O)N1C [LA10, O=C(N(C)[C@H](C(OCC)=O)CSCC(N[C@H](C(N(C)[C@@H](C)C(N[C@@H](CC(C)C)C(N1[C@H](CCC1)C(N(CC)CC(N[C@H]2CC3CCCCC3)=O)=O)=O)=O)=O)CC(C)C)=O)[C@H](CC(C)C)NC([C@H](C)N(C)C2=O)=O] ({CH2CO}-L[NMeA]L[dP][NEtG][Cha][NMeA]L[NMeC]-OEt; thioether N-9) as the compound, how does the “%R_avg” value read?
Its value is 13.0%.

And the Pe_avg?
The Pe_avg was 0 ×10⁻⁶ cm/s.

With CCC[C@@H]1NC(=O)[C@H](C)N(C)C(=O)[C@H](CC(C)C)NC(=O)CSC[C@@H](C(=O)OCC)N(C)C(=O)[C@H](CC(C)C)NC(=O)[C@H](C)N(C)C(=O)[C@H](CC)NC(=O)[C@H](CCC)N(C)C(=O)[C@H]2CCCN2C1=O [LC03, O=C(N(C)[C@H](C(OCC)=O)CSCC(N[C@H](C(N(C)[C@@H](C)C(N[C@@H](CCC)C(N1[C@H](CCC1)C(N(C)[C@@H](CCC)C(N[C@H]2CC)=O)=O)=O)=O)=O)CC(C)C)=O)[C@H](CC(C)C)NC([C@H](C)N(C)C2=O)=O] ({CH2CO}-L[NMeA][Nva][dP][NMeNva][Abu][NMeA]L[NMeC]-OEt; thioether N-9) as the compound, how does the “%R_avg” value read?
The value was 20.3%.

For CCC[C@H]1C(=O)N[C@@H](CC(C)C)C(=O)N(C)[C@@H](C)C(=O)N[C@@H](CC(C)C)C(=O)N(C)[C@H](C(=O)OCC)CSCC(=O)N[C@@H](CC(C)C)C(=O)N(C)[C@@H](C)C(=O)N[C@@H](CC(C)C)C(=O)N2CCC[C@@H]2C(=O)N1C [LC08, O=C(N(C)[C@H](C(OCC)=O)CSCC(N[C@H](C(N(C)[C@@H](C)C(N[C@@H](CC(C)C)C(N1[C@H](CCC1)C(N(C)[C@@H](CCC)C(N[C@H]2CC(C)C)=O)=O)=O)=O)=O)CC(C)C)=O)[C@H](CC(C)C)NC([C@H](C)N(C)C2=O)=O] ({CH2CO}-L[NMeA]L[dP][NMeNva]L[NMeA]L[NMeC]-OEt; thioether N-9), which “%R_avg” value is on record?
The value was 4.6%.

Which “%R_avg” value does the source give for CCOC(=O)[C@@H]1CSCC(=O)N[C@@H](CC(C)C)C(=O)N(CC)CC(=O)N[C@@H](CC(C)C)C(=O)N2CCC[C@@H]2C(=O)N(C)[C@@H](C)C(=O)N[C@@H](CC2CCCCC2)C(=O)N(C)[C@@H](C)C(=O)N[C@@H](CC(C)C)C(=O)N1C [LB10, O=C(N(C)[C@H](C(OCC)=O)CSCC(N[C@H](C1=O)CC(C)C)=O)[C@H](CC(C)C)NC([C@H](C)N(C)C([C@H](CC2CCCCC2)NC([C@H](C)N(C)C([C@@H]3N(C([C@H](CC(C)C)NC(CN1CC)=O)=O)CCC3)=O)=O)=O)=O] ({CH2CO}-L[NEtG]L[dP][NMeA][Cha][NMeA]L[NMeC]-OEt; thioether N-9) here?
The value was 8.0%.

For CCC[C@@H]1NC(=O)CN(CCC)C(=O)[C@H](CC(C)C)NC(=O)CSC[C@@H](C(=O)OCC)N(C)C(=O)[C@H](CC(C)C)NC(=O)[C@H](C)N(C)C(=O)[C@H](CC)NC(=O)[C@H](C)N(C)C(=O)[C@H]2CCCN2C1=O [LB03, O=C(N(C)[C@H](C(OCC)=O)CSCC(N[C@H](C1=O)CC(C)C)=O)[C@H](CC(C)C)NC([C@H](C)N(C)C([C@H](CC)NC([C@H](C)N(C)C([C@@H]2N(C([C@H](CCC)NC(CN1CCC)=O)=O)CCC2)=O)=O)=O)=O] ({CH2CO}-L[NPrGly][Nva][dP][NMeA][Abu][NMeA]L[NMeC]-OEt; thioether N-9), which “%R_avg” value is on record?
Its value is 61.4%.

For CCOC(=O)[C@@H]1CSCC(=O)N[C@@H](CC(C)C)C(=O)N(C)[C@@H](C)C(=O)N[C@@H](CC(C)C)C(=O)N2CCC[C@@H]2C(=O)N(C)[C@@H](CC)C(=O)N[C@@H](CC(C)C)C(=O)N(C)[C@@H](C)C(=O)N[C@@H](CC(C)C)C(=O)N1C [LC06, O=C(N(C)[C@H](C(OCC)=O)CSCC(N[C@H](C(N(C)[C@@H](C)C(N[C@@H](CC(C)C)C(N1[C@H](CCC1)C(N(C)[C@@H](CC)C(N[C@H]2CC(C)C)=O)=O)=O)=O)=O)CC(C)C)=O)[C@H](CC(C)C)NC([C@H](C)N(C)C2=O)=O] ({CH2CO}-L[NMeA]L[dP][NMeAbu]L[NMeA]L[NMeC]-OEt; thioether N-9), which “%R_avg” value is on record?
The value was 4.6%.

For CCOC(=O)[C@@H]1CSCC(=O)N[C@@H](CC(C)C)C(=O)N(C)[C@@H](C)C(=O)N[C@@H](CC(C)C)C(=O)N2CCC[C@@H]2C(=O)N(C)[C@@H](CC)C(=O)N[C@@H](CC2CCCCC2)C(=O)N(C)[C@@H](C)C(=O)N[C@@H](CC(C)C)C(=O)N1C [LC10, O=C(N(C)[C@H](C(OCC)=O)CSCC(N[C@H](C(N(C)[C@@H](C)C(N[C@@H](CC(C)C)C(N1[C@H](CCC1)C(N(C)[C@@H](CC)C(N[C@H]2CC3CCCCC3)=O)=O)=O)=O)=O)CC(C)C)=O)[C@H](CC(C)C)NC([C@H](C)N(C)C2=O)=O] ({CH2CO}-L[NMeA]L[dP][NMeAbu][Cha][NMeA]L[NMeC]-OEt; thioether N-9), which “%R_avg” value is on record?
The value was 10.5%.

For CCC[C@@H]1NC(=O)[C@H](C)N(C)C(=O)[C@H](CC(C)C)NC(=O)CSC[C@@H](C(=O)OCC)N(C)C(=O)[C@H](CC(C)C)NC(=O)[C@H](C)N(C)C(=O)[C@H](CC(C)C)NC(=O)CN(CC)C(=O)[C@H]2CCCN2C1=O [LA05, O=C(N(C)[C@H](C(OCC)=O)CSCC(N[C@H](C(N(C)[C@@H](C)C(N[C@@H](CCC)C(N1[C@H](CCC1)C(N(CC)CC(N[C@H]2CC(C)C)=O)=O)=O)=O)=O)CC(C)C)=O)[C@H](CC(C)C)NC([C@H](C)N(C)C2=O)=O] ({CH2CO}-L[NMeA][Nva][dP][NEtG]L[NMeA]L[NMeC]-OEt; thioether N-9), which “%R_avg” value is on record?
The value was 12.8%.

Which “%R_avg” value does the source give for CCOC(=O)[C@@H]1CSCC(=O)N[C@@H](CC(C)C)C(=O)N(CC)CC(=O)N[C@@H](CC(C)C)C(=O)N2CCC[C@@H]2C(=O)N(C)[C@@H](C)C(=O)N[C@@H](CC(C)C)C(=O)N(C)[C@@H](C)C(=O)N[C@@H](CC(C)C)C(=O)N1C [LB06, O=C(N(C)[C@H](C(OCC)=O)CSCC(N[C@H](C1=O)CC(C)C)=O)[C@H](CC(C)C)NC([C@H](C)N(C)C([C@H](CC(C)C)NC([C@H](C)N(C)C([C@@H]2N(C([C@H](CC(C)C)NC(CN1CC)=O)=O)CCC2)=O)=O)=O)=O] ({CH2CO}-L[NEtG]L[dP][NMeA]L[NMeA]L[NMeC]-OEt; thioether N-9) here?
The value was 12.6%.

Which “%R_avg” value does the source give for CCC[C@@H]1NC(=O)[C@H](C)N(C)C(=O)[C@H](CC(C)C)NC(=O)CSC[C@@H](C(=O)OCC)N(C)C(=O)[C@H](CC(C)C)NC(=O)[C@H](C)N(C)C(=O)[C@H](CC)NC(=O)[C@H](CC)N(C)C(=O)[C@H]2CCCN2C1=O [LC01, O=C(N(C)[C@H](C(OCC)=O)CSCC(N[C@H](C(N(C)[C@@H](C)C(N[C@@H](CCC)C(N1[C@H](CCC1)C(N(C)[C@@H](CC)C(N[C@H]2CC)=O)=O)=O)=O)=O)CC(C)C)=O)[C@H](CC(C)C)NC([C@H](C)N(C)C2=O)=O] ({CH2CO}-L[NMeA][Nva][dP][NMeAbu][Abu][NMeA]L[NMeC]-OEt; thioether N-9) here?
Its value is 30.1%.

Which “%R_avg” value does the source give for CCC[C@@H]1NC(=O)[C@H](C)N(C)C(=O)[C@H](CC(C)C)NC(=O)CSC[C@@H](C(=O)OCC)N(C)C(=O)[C@H](CC(C)C)NC(=O)[C@H](C)N(C)C(=O)[C@H](CC)NC(=O)CN(CC)C(=O)[C@H]2CCCN2C1=O [LA01, O=C(N(C)[C@H](C(OCC)=O)CSCC(N[C@H](C(N(C)[C@@H](C)C(N[C@@H](CCC)C(N1[C@H](CCC1)C(N(CC)CC(N[C@H]2CC)=O)=O)=O)=O)=O)CC(C)C)=O)[C@H](CC(C)C)NC([C@H](C)N(C)C2=O)=O] ({CH2CO}-L[NMeA][Nva][dP][NEtG][Abu][NMeA]L[NMeC]-OEt; thioether N-9) here?
Its value is 33.1%.

For CCC[C@@H]1NC(=O)[C@H](C)N(C)C(=O)[C@H](CC(C)C)NC(=O)CSC[C@@H](C(=O)OCC)N(C)C(=O)[C@H](CC(C)C)NC(=O)[C@H](C)N(C)C(=O)[C@H](CC2CCCCC2)NC(=O)[C@H](CCC)N(C)C(=O)[C@H]2CCCN2C1=O [LC11, O=C(N(C)[C@H](C(OCC)=O)CSCC(N[C@H](C(N(C)[C@@H](C)C(N[C@@H](CCC)C(N1[C@H](CCC1)C(N(C)[C@@H](CCC)C(N[C@H]2CC3CCCCC3)=O)=O)=O)=O)=O)CC(C)C)=O)[C@H](CC(C)C)NC([C@H](C)N(C)C2=O)=O] ({CH2CO}-L[NMeA][Nva][dP][NMeNva][Cha][NMeA]L[NMeC]-OEt; thioether N-9), which “%R_avg” value is on record?
The value was 7.4%.
